The supplement of paper PMC10307832

Columns and labels:
Experiment in all cases: relative viability (nuclei count vs DMSO), 5 days (fraction); higher = more cells survive
NCI-H838 = tested on: NCI-H838
In short: (§1)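 Cells from lung cancer lines were seeded into 1536-well plates and, one day later, dosed by pin tool. Treatments were either a single drug or a fixed dose of an anchor drug with five library-drug doses (not always all listed) in √10 steps. After 5 days, nuclei were stained in a one-step fixation (final 0.05% Triton X-100, 1% formaldehyde, 1 ug/ml Hoechst) and counted on 4× images, and relative viability is the treated-to-vehicle nuclei ratio, as the median of duplicate plates.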

LK-2 = tested on: LK-2
In short: as §1

HCC-366 = tested on: HCC-366
In short: as §1

NCI-H2342 = tested on: NCI-H2342
In short: as §1

NCI-H522 = tested on: NCI-H522
In short: as §1

LXF-289 = tested on: LXF-289
In short: as §1

COR-L23 = tested on: COR-L23
In short: as §1

HCC-827 = tested on: HCC-827
In short: as §1

NCI-H1975 = tested on: NCI-H1975
In short: as §1

PC-14 = tested on: PC-14
In short: as §1

HOP-62 = tested on: HOP-62
In short: as §1

NCI-H2085 = tested on: NCI-H2085
In short: as §1

C=C1C(=O)O[C@@H](CCCCCCCC)[C@@H]1C(=O)O [C-75] + CC(=O)Nc1cccc(-n2c(=O)n(C3CC3)c(=O)c3c(Nc4ccc(I)cc4F)n(C)c(=O)c(C)c32)c1 [Trametinib] (partner 0.02 µM)
relative viability (NCI-H838; first compound 0.08 µM): 0.524
relative viability (NCI-H838; first compound 0.253 µM): 0.292
relative viability (NCI-H838; first compound 0.8 µM): 0.456
relative viability (NCI-H838; first compound 2.53 µM): 0.422
relative viability (NCI-H838; first compound 8 µM): 0.388
relative viability (LK-2; first compound 0.08 µM): 0.719
relative viability (LK-2; first compound 0.253 µM): 1.31
relative viability (LK-2; first compound 0.8 µM): 0.822
relative viability (LK-2; first compound 2.53 µM): 0.521
relative viability (LK-2; first compound 8 µM): 0.575
relative viability (HCC-366; first compound 0.08 µM): 0.356
relative viability (HCC-366; first compound 0.253 µM): 0.426
relative viability (HCC-366; first compound 0.8 µM): 0.327
relative viability (HCC-366; first compound 2.53 µM): 0.285
relative viability (HCC-366; first compound 8 µM): 0.326
relative viability (NCI-H2342; first compound 0.08 µM): 0.956
relative viability (NCI-H2342; first compound 0.253 µM): 0.813
relative viability (NCI-H2342; first compound 0.8 µM): 0.687
relative viability (NCI-H2342; first compound 2.53 µM): 0.65
relative viability (NCI-H2342; first compound 8 µM): 0.917
relative viability (NCI-H522; first compound 0.08 µM): 0.784
relative viability (NCI-H522; first compound 0.253 µM): 0.61
relative viability (NCI-H522; first compound 0.8 µM): 0.747
relative viability (NCI-H522; first compound 2.53 µM): 0.845
relative viability (NCI-H522; first compound 8 µM): 0.604
relative viability (LXF-289; first compound 0.08 µM): 0.646
relative viability (LXF-289; first compound 0.253 µM): 0.683
relative viability (LXF-289; first compound 0.8 µM): 0.657
relative viability (LXF-289; first compound 2.53 µM): 0.664
relative viability (LXF-289; first compound 8 µM): 0.672
relative viability (COR-L23; first compound 0.08 µM): 0.636
relative viability (COR-L23; first compound 0.253 µM): 0.58
relative viability (COR-L23; first compound 0.8 µM): 0.562
relative viability (COR-L23; first compound 2.53 µM): 0.485
relative viability (COR-L23; first compound 8 µM): 0.569
relative viability (HCC-827; first compound 0.253 µM): 0.786
relative viability (HCC-827; first compound 0.8 µM): 0.558
relative viability (HCC-827; first compound 8 µM): 0.55
relative viability (NCI-H1975; first compound 0.08 µM): 0.452
relative viability (NCI-H1975; first compound 0.253 µM): 0.309
relative viability (NCI-H1975; first compound 0.8 µM): 0.305
relative viability (NCI-H1975; first compound 2.53 µM): 0.319
relative viability (NCI-H1975; first compound 8 µM): 0.41
relative viability (PC-14; first compound 0.08 µM): 0.902
relative viability (PC-14; first compound 0.253 µM): 0.811
relative viability (PC-14; first compound 0.8 µM): 0.724
relative viability (PC-14; first compound 2.53 µM): 0.78
relative viability (PC-14; first compound 8 µM): 0.731
relative viability (HOP-62; first compound 0.08 µM): 0.354
relative viability (HOP-62; first compound 0.253 µM): 0.43
relative viability (HOP-62; first compound 0.8 µM): 0.358
relative viability (HOP-62; first compound 2.53 µM): 0.321
relative viability (HOP-62; first compound 8 µM): 0.359
relative viability (NCI-H2085; first compound 0.08 µM): 0.519
relative viability (NCI-H2085; first compound 0.253 µM): 0.666
relative viability (NCI-H2085; first compound 0.8 µM): 0.466
